This experiment concerns MV-4-11 cells. As to the kind of experiment: Gene expression microarray analysis (Affymetrix PrimeView) and GSEA. Type of experiment: cell-based, human. Set-up: RFU PODN (11730768_x_at) / Fold change /veh PODN (11730768_x_at) / RFU LINC00158 (11744669_a_at) / Fold change /veh LINC00158 (11744669_a_at) / RFU DUSP10 (11751237_a_at) / Fold change /veh DUSP10 (11751237_a_at) / RFU ID3 (11757404_x_at) / Fold change /veh ID3 (11757404_x_at) / RFU PLEKHG5 (11737974_s_at) / Fold change /veh PLEKHG5 (11737974_s_at) / RFU LRRC4B (11730491_at) / Fold change /veh LRRC4B (11730491_at) / RFU GIMAP4 (11747438_a_at) / Fold change /veh GIMAP4 (11747438_a_at) / RFU KRT8 (11758183_x_at) / Fold change /veh KRT8 (11758183_x_at) / RFU CNN1 (11734310_a_at) / Fold change /veh CNN1 (11734310_a_at) / RFU VPS37D (11726825_at) / Fold change /veh VPS37D (11726825_at) / RFU C10orf10 (11716522_x_at) / Fold change /veh C10orf10 (11716522_x_at) / RFU KIR2DL2 /// KIR2DL4 /// KIR2DL5A /// KIR2DL5B /// KIR2DS1 /// KIR2DS2 /// KIR2DS3 /// KIR2DS4 /// KIR3DL3 /// KIR3DL3 /// KIR3DS1 (11738374_at) / Fold change /veh KIR2DL2 /// KIR2DL4 /// KIR2DL5A /// KIR2DL5B /// KIR2DS1 /// KIR2DS2 /// KIR2DS3 /// KIR2DS4 /// KIR3DL3 /// KIR3DL3 /// KIR3DS1 (11738374_at) / RFU C1QL1 (11718748_at) / Fold change /veh C1QL1 (11718748_at) / RFU TMPRSS4 (11747572_a_at) / Fold change /veh TMPRSS4 (11747572_a_at) / RFU HAMP (11756126_x_at) / Fold change /veh HAMP (11756126_x_at) / RFU RNFT2 (11725882_a_at) / Fold change /veh RNFT2 (11725882_a_at) / RFU NR4A2 (11747474_a_at) / Fold change /veh NR4A2 (11747474_a_at) / RFU ABCC12 (11746883_a_at) / Fold change /veh ABCC12 (11746883_a_at) / RFU TMEM136 (11760407_x_at) / Fold change /veh TMEM136 (11760407_x_at) / RFU CLDN22 /// WWC2 (11732394_at) / Fold change /veh CLDN22 /// WWC2 (11732394_at) / RFU HLA-DPB1 (11760878_x_at) / Fold change /veh HLA-DPB1 (11760878_x_at) / RFU SPINT1 (11716480_a_at) / Fold change /veh SPINT1 (11716480_a_at) / RFU GAP43 (11754022_s_at) / Fold change /veh GAP43 (11754022_s_at) / RFU A4GNT (11735810_at) / Fold change /veh A4GNT (11735810_at) / RFU PRB3 (11715151_x_at) / Fold change /veh PRB3 (11715151_x_at) / RFU TUBB4B (11761932_at) / Fold change /veh TUBB4B (11761932_at) / RFU CAPN14 (11732068_a_at) / Fold change /veh CAPN14 (11732068_a_at) / RFU TMCC2 (11721928_a_at) / Fold change /veh TMCC2 (11721928_a_at) / RFU IRGQ (11745062_a_at) / Fold change /veh IRGQ (11745062_a_at) / RFU FAM174B (11720279_a_at) / Fold change /veh FAM174B (11720279_a_at) / RFU TMPRSS4 (11748680_a_at) / Fold change /veh TMPRSS4 (11748680_a_at) / RFU FAM212B (11763350_a_at) / Fold change /veh FAM212B (11763350_a_at) / RFU PLEKHG5 (11743358_a_at) / Fold change /veh PLEKHG5 (11743358_a_at) / RFU ZSCAN30 (11745921_a_at) / Fold change /veh ZSCAN30 (11745921_a_at) / RFU CMKLR1 (11741424_a_at) / Fold change /veh CMKLR1 (11741424_a_at) / RFU LOC101060620 /// MAPK8IP1 (11723275_at) / Fold change /veh LOC101060620 /// MAPK8IP1 (11723275_at) / RFU SPTSSB (11747773_x_at) / Fold change /veh SPTSSB (11747773_x_at) / RFU PRSS12 (11739890_at) / Fold change /veh PRSS12 (11739890_at) / RFU BIN1 (11741810_x_at) / Fold change /veh BIN1 (11741810_x_at) / RFU WNT11 (11732464_a_at) / Fold change /veh WNT11 (11732464_a_at) / RFU C10orf10 (11716521_a_at) / Fold change /veh C10orf10 (11716521_a_at) / RFU C5orf56 (11738089_at) / Fold change /veh C5orf56 (11738089_at) / RFU CYB561 (11721691_x_at) / Fold change /veh CYB561 (11721691_x_at) / RFU ANKRD19P (11752326_a_at) / Fold change /veh ANKRD19P (11752326_a_at) / RFU OR2T12 /// OR2T33 /// OR2T8 (11738714_s_at) / Fold change /veh OR2T12 /// OR2T33 /// OR2T8 (11738714_s_at) / RFU VCAN (11748164_a_at) / Fold change /veh VCAN (11748164_a_at) / RFU JSRP1 (11732532_at) / Fold change /veh JSRP1 (11732532_at) / RFU KRTAP10-11 (11738290_x_at) / Fold change /veh KRTAP10-11 (11738290_x_at) / RFU MYO3A (11730013_a_at) / Fold change /veh MYO3A (11730013_a_at) / RFU EBF3 (11725865_a_at) / Fold change /veh EBF3 (11725865_a_at) / RFU CAMK2N1 (11719241_x_at) / Fold change /veh CAMK2N1 (11719241_x_at) / RFU C5orf56 (11738088_a_at) / Fold change /veh C5orf56 (11738088_a_at) / RFU OLFML3 (11715873_a_at) / Fold change /veh OLFML3 (11715873_a_at) / RFU LOC100653217 /// NTM (11731650_a_at) / Fold change /veh LOC100653217 /// NTM (11731650_a_at) / RFU MAPK11 (11762145_a_at) / Fold change /veh MAPK11 (11762145_a_at) / RFU FIZ1 (11724087_x_at) / Fold change /veh FIZ1 (11724087_x_at) / RFU OASL (11726364_x_at) / Fold change /veh OASL (11726364_x_at) / RFU SOX15 (11748057_x_at) / Fold change /veh SOX15 (11748057_x_at) / RFU CD79A (11719716_a_at) / Fold change /veh CD79A (11719716_a_at) / RFU HIST1H1D (11736915_at) / Fold change /veh HIST1H1D (11736915_at) / RFU CASKIN2 (11723855_a_at) / Fold change /veh CASKIN2 (11723855_a_at) / RFU LOC730098 (11760151_x_at) / Fold change /veh LOC730098 (11760151_x_at) / RFU OR4N2 (11742367_at) / Fold change /veh OR4N2 (11742367_at) / RFU PRRT2 (11749266_a_at) / Fold change /veh PRRT2 (11749266_a_at) / RFU SNX32 (11753110_a_at) / Fold change /veh SNX32 (11753110_a_at) / RFU CDHR5 (11726645_a_at) / Fold change /veh CDHR5 (11726645_a_at) / RFU RCAN1 (11760418_a_at) / Fold change /veh RCAN1 (11760418_a_at) / RFU FAM167A (11723789_a_at) / Fold change /veh FAM167A (11723789_a_at) / RFU FAM26E (11764081_at) / Fold change /veh FAM26E (11764081_at) / RFU ISYNA1 (11749810_s_at) / Fold change /veh ISYNA1 (11749810_s_at) / RFU ACY1 (11761880_at) / Fold change /veh ACY1 (11761880_at) / RFU 11764098_at / Fold change /veh 11764098_at / RFU SAMD14 (11745864_x_at) / Fold change /veh SAMD14 (11745864_x_at) / RFU NPB (11741838_a_at) / Fold change /veh NPB (11741838_a_at) / RFU TMPRSS6 (11731388_a_at) / Fold change /veh TMPRSS6 (11731388_a_at) / RFU KRTAP10-2 (11738614_at) / Fold change /veh KRTAP10-2 (11738614_at) / RFU ARHGAP8 /// PRR5-ARHGAP8 (11727945_x_at) / Fold change /veh ARHGAP8 /// PRR5-ARHGAP8 (11727945_x_at) / RFU KRTAP5-7 /// NADSYN1 (11734609_at) / Fold change /veh KRTAP5-7 /// NADSYN1 (11734609_at) / RFU RASL12 (11751679_a_at) / Fold change /veh RASL12 (11751679_a_at) / RFU CDKN2B (11736163_a_at) / Fold change /veh CDKN2B (11736163_a_at) / RFU PRF1 (11729649_at) / Fold change /veh PRF1 (11729649_at) / RFU, ZNF638 /// ZNF638-IT1 / Fold change vs veh, ZNF638 /// ZNF638-IT1 / RFU, PANK3 / Fold change vs veh, PANK3 / RFU, SH3YL1 / Fold change vs veh, SH3YL1 / RFU, ZEB2 / Fold change vs veh, ZEB2 / RFU, NRIP1 / Fold change vs veh, NRIP1 / RFU, PTTG1IP / Fold change vs veh, PTTG1IP / RFU, CAPN2 / Fold change vs veh, CAPN2 / RFU, MED14 / Fold change vs veh, MED14 / RFU, SNORA58 / Fold change vs veh, SNORA58 / RFU, C1orf63 / Fold change vs veh, C1orf63 / RFU, LRRFIP1 / Fold change vs veh, LRRFIP1 / RFU, NDUFAF7 / Fold change vs veh, NDUFAF7 / RFU, SLC12A2 / Fold change vs veh, SLC12A2 / RFU, IBTK / Fold change vs veh, IBTK / RFU, ESF1 / Fold change vs veh, ESF1 / Fold change vs veh, TMEM50B / RFU, TAOK1 / Fold change vs veh, TAOK1 / RFU, ACBD3 / Fold change vs veh, ACBD3 / RFU, TMA16 / Fold change vs veh, TMA16 / RFU, RWDD3 / Fold change vs veh, RWDD3 / RFU, BCAT1 / Fold change vs veh, BCAT1 / RFU, EDEM3 / Fold change vs veh, EDEM3 / RFU, TMEM33 / Fold change vs veh, TMEM33 / RFU, WDR75 / Fold change vs veh, WDR75 / RFU, AHCTF1 / Fold change vs veh, AHCTF1 / RFU, TFRC / Fold change vs veh, TFRC / RFU, ZDHHC17 / Fold change vs veh, ZDHHC17 / RFU, NOM1 / Fold change vs veh, NOM1 / RFU, ARL8B / Fold change vs veh, ARL8B / RFU, ZBTB11 / Fold change vs veh, ZBTB11 / RFU, TAMM41 / Fold change vs veh, TAMM41 / RFU, KIAA1704 /// LOC100996395 / Fold change vs veh, KIAA1704 /// LOC100996395 / RFU, ING1 / Fold change vs veh, ING1 / RFU, TRMT61B / Fold change vs veh, TRMT61B / RFU, FUBP3 / Fold change vs veh, FUBP3 / RFU, TP53 / Fold change vs veh, TP53 / RFU, TNKS2 / Fold change vs veh, TNKS2 / RFU, ZFP14 / Fold change vs veh, ZFP14 / RFU, ACTR2 / Fold change vs veh, ACTR2 / RFU, PPP3R1 / Fold change vs veh, PPP3R1 / RFU, PIK3R1 / Fold change vs veh, PIK3R1 / RFU, HNRNPA1 / Fold change vs veh, HNRNPA1 / RFU, RNF170 / Fold change vs veh, RNF170 / RFU, ZNF28 / Fold change vs veh, ZNF28 / RFU, RNGTT / Fold change vs veh, RNGTT / RFU, OGT / Fold change vs veh, OGT / RFU, BRD1 / Fold change vs veh, BRD1 / RFU, MARS / Fold change vs veh, MARS / RFU, ZNF655 / Fold change vs veh, ZNF655 / RFU, FAHD1 / Fold change vs veh, FAHD1 / RFU, BDP1 / Fold change vs veh, BDP1 / RFU, LRRCC1 / Fold change vs veh, LRRCC1 / RFU, ARID1A / Fold change vs veh, ARID1A / RFU, ZNF146 / Fold change vs veh, ZNF146 / RFU, ZNF330 / Fold change vs veh, ZNF330 / RFU, GPN3 / Fold change vs veh, GPN3 / RFU, C9orf123 / Fold change vs veh, C9orf123 / RFU, N4BP2L2 / Fold change vs veh, N4BP2L2 / RFU, ARFIP1 / Fold change vs veh, ARFIP1 / RFU, FAM179B / Fold change vs veh, FAM179B / RFU, BCL10 / Fold change vs veh, BCL10 / RFU, UHRF1BP1L / Fold change vs veh, UHRF1BP1L / RFU, BET1 / Fold change vs veh, BET1 / RFU, CNOT2 / Fold change vs veh, CNOT2 / RFU, ZNF268 / Fold change vs veh, ZNF268 / Fold change vs veh, ZNF507 / RFU, DGCR2 / Fold change vs veh, DGCR2 / RFU, WDSUB1 / Fold change vs veh, WDSUB1 / Fold change vs veh, HSP90B1 /// MIR3652 / RFU, ADSS / Fold change vs veh, ADSS / RFU, GK / Fold change vs veh, GK / RFU, ZNF148 / Fold change vs veh, ZNF148 / RFU, TAF9 / Fold change vs veh, TAF9 / RFU, SLC1A5 / Fold change vs veh, SLC1A5 / RFU, SLMO2 / Fold change vs veh, SLMO2 / RFU, ABCC4 / Fold change vs veh, ABCC4 / RFU, LOC101060439 /// RAP1B / Fold change vs veh, LOC101060439 /// RAP1B / RFU, RFX7 / Fold change vs veh, RFX7 / RFU, GTPBP10 / Fold change vs veh, GTPBP10 / RFU, CNEP1R1 / Fold change vs veh, CNEP1R1 / RFU, BIVM-ERCC5 /// ERCC5 / Fold change vs veh, BIVM-ERCC5 /// ERCC5 / RFU, ILF3 / Fold change vs veh, ILF3 / RFU 11762660_at / Fold change /veh 11762660_at / RFU VCAN (11757783_s_at) / Fold change /veh VCAN (11757783_s_at) / RFU DDX43 (11728927_at) / Fold change /veh DDX43 (11728927_at) / RFU KRT8 (11758188_x_at) / Fold change /veh KRT8 (11758188_x_at) / RFU NKD1 (11759106_at) / Fold change /veh NKD1 (11759106_at) / RFU SRD5A1 (11742802_a_at) / Fold change /veh SRD5A1 (11742802_a_at) / RFU TPSAB1 /// TPSB2 (11721975_s_at) / Fold change /veh TPSAB1 /// TPSB2 (11721975_s_at) / RFU GSTM3 (11746129_a_at) / Fold change /veh GSTM3 (11746129_a_at) / RFU IL23R (11737362_x_at) / Fold change /veh IL23R (11737362_x_at) / RFU TMEM51 (11727254_a_at) / Fold change /veh TMEM51 (11727254_a_at) / RFU PIWIL2 (11732686_x_at) / Fold change /veh PIWIL2 (11732686_x_at) / RFU ORM1 (11744905_x_at) / Fold change /veh ORM1 (11744905_x_at) / RFU CCDC152 (11743942_at) / Fold change /veh CCDC152 (11743942_at) / RFU ECM1 (11717891_a_at) / Fold change /veh ECM1 (11717891_a_at) / RFU IL23R (11748794_a_at) / Fold change /veh IL23R (11748794_a_at) / RFU TNFAIP8L3 (11732012_x_at) / Fold change /veh TNFAIP8L3 (11732012_x_at) / RFU MBOAT4 (11741988_at) / Fold change /veh MBOAT4 (11741988_at) / RFU 11764193_at / Fold change /veh 11764193_at / RFU TMEM53 (11763286_at) / Fold change /veh TMEM53 (11763286_at) / RFU MAGEB2 (11727129_at) / Fold change /veh MAGEB2 (11727129_at) / RFU TMEM200A (11744735_a_at) / Fold change /veh TMEM200A (11744735_a_at) / RFU CCDC152 (11751479_a_at) / Fold change /veh CCDC152 (11751479_a_at) / RFU FAM211A (11726209_a_at) / Fold change /veh FAM211A (11726209_a_at) / RFU RGS16 (11746705_a_at) / Fold change /veh RGS16 (11746705_a_at) / RFU VCAN (11755009_s_at) / Fold change /veh VCAN (11755009_s_at) / RFU RHOB (11743442_s_at) / Fold change /veh RHOB (11743442_s_at) / RFU RGS16 (11720943_a_at) / Fold change /veh RGS16 (11720943_a_at) / RFU RGS16 (11720944_at) / Fold change /veh RGS16 (11720944_at) / RFU, VPS4B / Fold change vs veh, VPS4B / RFU, CREB1 / Fold change vs veh, CREB1 / RFU, DNAJC13 / Fold change vs veh, DNAJC13 / RFU, GNAQ / Fold change vs veh, GNAQ / RFU, CDK5R1 / Fold change vs veh, CDK5R1 / RFU, ZRANB3 / Fold change vs veh, ZRANB3 / RFU, CUL4A / Fold change vs veh, CUL4A / RFU, CCNY / Fold change vs veh, CCNY / RFU, UFL1 / Fold change vs veh, UFL1 / RFU, COG3 / Fold change vs veh, COG3 / RFU, DIAPH2 / Fold change vs veh, DIAPH2 / RFU, SKA2 / Fold change vs veh, SKA2 / RFU, AFF3 / Fold change vs veh, AFF3 / RFU, LMF1 / Fold change vs veh, LMF1 / RFU, IPO11 / Fold change vs veh, IPO11 / RFU, DFFB / Fold change vs veh, DFFB / RFU, FOXP1 / Fold change vs veh, FOXP1 / RFU, CARD8 / Fold change vs veh, CARD8 / RFU, STRN3 / Fold change vs veh, STRN3 / RFU, ADK / Fold change vs veh, ADK / RFU, RASSF2 / Fold change vs veh, RASSF2 / RFU, WIPF1 / Fold change vs veh, WIPF1 / RFU, LARP1B / Fold change vs veh, LARP1B / RFU, RASA1 / Fold change vs veh, RASA1 / RFU, RB1 / Fold change vs veh, RB1 / RFU, PPFIA1 / Fold change vs veh, PPFIA1 / RFU, MAT2A / Fold change vs veh, MAT2A / RFU, CCT5 / Fold change vs veh, CCT5 / RFU, WDR92 / Fold change vs veh, WDR92 / RFU, CUX1 / Fold change vs veh, CUX1 / RFU, TTC7A / Fold change vs veh, TTC7A / RFU, TMEM135 / Fold change vs veh, TMEM135 / RFU, DEPTOR / Fold change vs veh, DEPTOR / RFU, CPM / Fold change vs veh, CPM / RFU, DNAJB6 / Fold change vs veh, DNAJB6 / RFU, CACNA2D3 / Fold change vs veh, CACNA2D3 / RFU, DTX4 / Fold change vs veh, DTX4 / RFU, TFCP2 / Fold change vs veh, TFCP2 / RFU, GMCL1 /// GMCL1P1 / Fold change vs veh, GMCL1 /// GMCL1P1 / RFU, AEBP2 / Fold change vs veh, AEBP2 / RFU, SNHG1 /// SNORD22 /// SNORD25 /// SNORD26 /// SNORD27 /// SNORD28 /// SNORD29 /// SNORD31 / Fold change vs veh, SNHG1 /// SNORD22 /// SNORD25 /// SNORD26 /// SNORD27 /// SNORD28 /// SNORD29 /// SNORD31 / Fold change (Aza/veh), C12orf56 (ProbeSet 11735607_a_at) / Fold change (ACY-1035/veh), C12orf56 (ProbeSet 11735607_a_at) / Fold change (Aza/veh), FGFR1OP (ProbeSet 11751329_s_at) / Fold change (ACY-1035/veh), FGFR1OP (ProbeSet 11751329_s_at) / Fold change (Aza/veh), VPS36 (ProbeSet 11739960_a_at) / Fold change (ACY-1035/veh), VPS36 (ProbeSet 11739960_a_at) / RFU SYPL1 (11715823_x_at) / Fold change /veh SYPL1 (11715823_x_at) / RFU IGFBP7 (11715501_s_at) / Fold change /veh IGFBP7 (11715501_s_at) / RFU REEP3 (11722064_at) / Fold change /veh REEP3 (11722064_at) / RFU IGLL1 (11728026_x_at) / Fold change /veh IGLL1 (11728026_x_at): dose or concentration left out as unconfirmed. The following applies: MV-4-11 cells, 48 hours.

`Nc1ncn([C@@H]2O[C@H](CO)[C@@H](O)[C@H]2O)c(=O)n1` [azacitidine]: the “RFU VCAN (11755009_s_at)” value was determined as 15.18 RFU.
